Experiments:
Conditions in all cases: 48 h
NOMO1 [1] = experiment: cell viability relative to DMSO control; higher = less cytotoxic
Procedure, shortened: (§1)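 Viability values are per-plate percentages of DMSO wells, with background from cell-free wells. Library compounds in DMSO were pin-dosed, in an 11-point threefold series from 47 μM to 0.79 nM, onto NOMO1 or SEM (500 cells/well) or P12-Ichikawa (1000 cells/well) leukemia cells in 1536-well plates (5 μl). Those cells had been adapted for at least four passages in each medium, and CellTiter-Glo One luminescence was read after 48 h at 37°C.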

P12-Ichikawa [2] = experiment: as above
Procedure, shortened: as §1

SEM cells [3] = experiment: as above
Procedure, shortened: as §1

NOMO1 [4] = experiment: AUC of viability dose-response curve (% viability x log10 dose units); higher = less sensitive
Procedure, shortened: (§2)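 Leukemia cells adapted to each medium (500 or 1000 cells/well, 1536-well plates) were exposed to library compounds in DMSO for 48 h at 37°C at 11 threefold doses, 47 μM to 0.79 nM. Luminescence by CellTiter-Glo One was normalised per plate to DMSO and cell-free wells, then fitted with a four-parameter log-logistic curve on log10 dose. Curves above full viability were scaled and quality-control failures removed before area under the curve was integrated by trapezoidal rule.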

P12-Ichikawa [5] = experiment: as above
Procedure, shortened: as §2

SEM cells [6] = experiment: as above
Procedure, shortened: as §2

CC(C)(O)C(=O)Nc1ccc([N+](=O)[O-])c(C(F)(F)F)c1
cell viability [%]
Conditions	NOMO1 [1]	P12-Ichikawa [2]	SEM cells [3]
HPLM + 10% dialyzed FBS, 0.000781 µM	94.7	103	98.6
HPLM + 10% dialyzed FBS, 0.00234 µM	116	109	107
HPLM + 10% dialyzed FBS, 0.00702 µM	131	124	115
HPLM + 10% dialyzed FBS, 0.0211 µM	124	119	108
HPLM + 10% dialyzed FBS, 0.0632 µM	122	118	116
HPLM + 10% dialyzed FBS, 0.19 µM	135	123	113
HPLM + 10% dialyzed FBS, 0.569 µM	126	119	124
HPLM + 10% dialyzed FBS, 1.71 µM	65.8	119	123
HPLM + 10% dialyzed FBS, 5.12 µM	38	85.6	117
HPLM + 10% dialyzed FBS, 15.4 µM	30.6	24	123
HPLM + 10% dialyzed FBS, 46.1 µM	30.5	11.6	103
RPMI 5 mM glucose + 10% FBS, 0.000781 µM	118	95.7	92.2
RPMI 5 mM glucose + 10% FBS, 0.00234 µM	123	108	97
RPMI 5 mM glucose + 10% FBS, 0.00702 µM	124	115	91.9
RPMI 5 mM glucose + 10% FBS, 0.0211 µM	122	115	91.3
RPMI 5 mM glucose + 10% FBS, 0.0632 µM	120	122	101
RPMI 5 mM glucose + 10% FBS, 0.19 µM	132	113	97.6
RPMI 5 mM glucose + 10% FBS, 0.569 µM	125	119	103
RPMI 5 mM glucose + 10% FBS, 1.71 µM	51.1	125	114
RPMI 5 mM glucose + 10% FBS, 5.12 µM	29	87	104
RPMI 5 mM glucose + 10% FBS, 15.4 µM	24.1	29.5	123
RPMI 5 mM glucose + 10% FBS, 46.1 µM	25.7	13.8	82.8
RPMI 5 mM glucose + 10% dialyzed FBS, 0.000781 µM	–	94.1	112
RPMI 5 mM glucose + 10% dialyzed FBS, 0.00234 µM	–	127	114
RPMI 5 mM glucose + 10% dialyzed FBS, 0.00702 µM	–	116	112
RPMI 5 mM glucose + 10% dialyzed FBS, 0.0211 µM	–	121	120
RPMI 5 mM glucose + 10% dialyzed FBS, 0.0632 µM	–	125	112
RPMI 5 mM glucose + 10% dialyzed FBS, 0.19 µM	–	130	118
RPMI 5 mM glucose + 10% dialyzed FBS, 0.569 µM	–	139	135
RPMI 5 mM glucose + 10% dialyzed FBS, 1.71 µM	–	136	123
RPMI 5 mM glucose + 10% dialyzed FBS, 5.12 µM	–	127	131
RPMI 5 mM glucose + 10% dialyzed FBS, 15.4 µM	–	74.8	128
RPMI 5 mM glucose + 10% dialyzed FBS, 46.1 µM	–	18.1	126

AUC of viability dose-response curve
Conditions	NOMO1 [4]	P12-Ichikawa [5]	SEM cells [6]
HPLM + 10% dialyzed FBS	368	404	465
RPMI 5 mM glucose + 10% FBS	355	409	449
RPMI 5 mM glucose + 10% dialyzed FBS	371	438	448

C1CN\2C[C@@H](\N=C2S1)C3=CC=CC=C3
cell viability [%]
Conditions	NOMO1 [1]	P12-Ichikawa [2]	SEM cells [3]
HPLM + 10% dialyzed FBS, 0.000781 µM	101	94.4	82.1
HPLM + 10% dialyzed FBS, 0.00234 µM	98.4	105	95
HPLM + 10% dialyzed FBS, 0.00702 µM	103	99.8	104
HPLM + 10% dialyzed FBS, 0.0211 µM	96.9	104	88.6
HPLM + 10% dialyzed FBS, 0.0632 µM	104	108	98.7
HPLM + 10% dialyzed FBS, 0.19 µM	114	106	99.5
HPLM + 10% dialyzed FBS, 0.569 µM	102	107	100
HPLM + 10% dialyzed FBS, 1.71 µM	94.8	108	100
HPLM + 10% dialyzed FBS, 5.12 µM	91.3	103	97.8
HPLM + 10% dialyzed FBS, 15.4 µM	97.7	108	100
HPLM + 10% dialyzed FBS, 46.1 µM	60.3	111	86.1
RPMI 5 mM glucose + 10% FBS, 0.000781 µM	87.9	96.3	73.7
RPMI 5 mM glucose + 10% FBS, 0.00234 µM	88.6	105	86.7
RPMI 5 mM glucose + 10% FBS, 0.00702 µM	90.1	96	89.4
RPMI 5 mM glucose + 10% FBS, 0.0211 µM	90.2	93.4	83.1
RPMI 5 mM glucose + 10% FBS, 0.0632 µM	104	98.7	90.9
RPMI 5 mM glucose + 10% FBS, 0.19 µM	88.5	–	75.2
RPMI 5 mM glucose + 10% FBS, 0.569 µM	89.5	102	87.6
RPMI 5 mM glucose + 10% FBS, 1.71 µM	90.8	106	89.3
RPMI 5 mM glucose + 10% FBS, 5.12 µM	95.8	99.8	88
RPMI 5 mM glucose + 10% FBS, 15.4 µM	91	103	87.8
RPMI 5 mM glucose + 10% FBS, 46.1 µM	103	105	40.4
RPMI 5 mM glucose + 10% dialyzed FBS, 0.000781 µM	87.6	87	88.8
RPMI 5 mM glucose + 10% dialyzed FBS, 0.00234 µM	88.8	93.9	95.3
RPMI 5 mM glucose + 10% dialyzed FBS, 0.00702 µM	85.3	90.1	100
RPMI 5 mM glucose + 10% dialyzed FBS, 0.0211 µM	90.5	94.4	107
RPMI 5 mM glucose + 10% dialyzed FBS, 0.0632 µM	93.3	101	106
RPMI 5 mM glucose + 10% dialyzed FBS, 0.19 µM	88.5	102	116
RPMI 5 mM glucose + 10% dialyzed FBS, 0.569 µM	86.8	92.7	107
RPMI 5 mM glucose + 10% dialyzed FBS, 1.71 µM	99.9	98.3	106
RPMI 5 mM glucose + 10% dialyzed FBS, 5.12 µM	84	101	118
RPMI 5 mM glucose + 10% dialyzed FBS, 15.4 µM	93	96.8	100
RPMI 5 mM glucose + 10% dialyzed FBS, 46.1 µM	91.7	90.8	76.9

AUC of viability dose-response curve
Conditions	NOMO1 [4]	P12-Ichikawa [5]	SEM cells [6]
HPLM + 10% dialyzed FBS	465	467	459
RPMI 5 mM glucose + 10% FBS	442	462	396
RPMI 5 mM glucose + 10% dialyzed FBS	429	455	476

CC1=C(/C=C/C(C)=C/C=C/C(C)=C/C(=O)O)C(C)(C)CCC1
cell viability [%]
Conditions	NOMO1 [1]	P12-Ichikawa [2]	SEM cells [3]
HPLM + 10% dialyzed FBS, 0.000781 µM	106	116	111
HPLM + 10% dialyzed FBS, 0.00234 µM	106	125	114
HPLM + 10% dialyzed FBS, 0.00702 µM	144	121	116
HPLM + 10% dialyzed FBS, 0.0211 µM	126	121	129
HPLM + 10% dialyzed FBS, 0.0632 µM	114	127	133
HPLM + 10% dialyzed FBS, 0.19 µM	127	119	123
HPLM + 10% dialyzed FBS, 0.569 µM	110	132	137
HPLM + 10% dialyzed FBS, 1.71 µM	104	126	145
HPLM + 10% dialyzed FBS, 5.12 µM	98	123	122
HPLM + 10% dialyzed FBS, 15.4 µM	84.3	111	115
HPLM + 10% dialyzed FBS, 46.1 µM	80.3	104	102
RPMI 5 mM glucose + 10% FBS, 0.000781 µM	128	–	118
RPMI 5 mM glucose + 10% FBS, 0.00234 µM	124	–	116
RPMI 5 mM glucose + 10% FBS, 0.00702 µM	114	–	139
RPMI 5 mM glucose + 10% FBS, 0.0211 µM	111	–	123
RPMI 5 mM glucose + 10% FBS, 0.0632 µM	118	–	120
RPMI 5 mM glucose + 10% FBS, 0.19 µM	122	–	123
RPMI 5 mM glucose + 10% FBS, 0.569 µM	128	–	121
RPMI 5 mM glucose + 10% FBS, 1.71 µM	110	–	155
RPMI 5 mM glucose + 10% FBS, 5.12 µM	94	–	124
RPMI 5 mM glucose + 10% FBS, 15.4 µM	99.1	–	113
RPMI 5 mM glucose + 10% FBS, 46.1 µM	68.4	–	101
RPMI 5 mM glucose + 10% dialyzed FBS, 0.000781 µM	–	–	112
RPMI 5 mM glucose + 10% dialyzed FBS, 0.00234 µM	–	–	107
RPMI 5 mM glucose + 10% dialyzed FBS, 0.00702 µM	–	–	128
RPMI 5 mM glucose + 10% dialyzed FBS, 0.0211 µM	–	–	99.8
RPMI 5 mM glucose + 10% dialyzed FBS, 0.0632 µM	–	–	110
RPMI 5 mM glucose + 10% dialyzed FBS, 0.19 µM	–	–	120
RPMI 5 mM glucose + 10% dialyzed FBS, 0.569 µM	–	–	120
RPMI 5 mM glucose + 10% dialyzed FBS, 1.71 µM	–	–	144
RPMI 5 mM glucose + 10% dialyzed FBS, 5.12 µM	–	–	102
RPMI 5 mM glucose + 10% dialyzed FBS, 15.4 µM	–	–	98.3
RPMI 5 mM glucose + 10% dialyzed FBS, 46.1 µM	–	–	84.8

AUC of viability dose-response curve
Conditions	NOMO1 [4]	P12-Ichikawa [5]	SEM cells [6]
HPLM + 10% dialyzed FBS	434	468	475
RPMI 5 mM glucose + 10% FBS	443	464	465
RPMI 5 mM glucose + 10% dialyzed FBS	412	467	450

— the supplement of paper PMC11451515
